# According to patent US20020137929A1, “1 - (3-heterocyclylphenyl) isothiourea, -isourea, -guanidine and -amidine herbicidal agents” (Intellectual Property Department, BASF Aktiengesellschaft, priority 1998, published 2002):
# Assays:
# [1] = system: ABUTH (Velvetleaf); assay: Postemergence herbicidal evaluation; assay type: in vivo, Abutilon theophrasti; details: postemergence
# Procedure, shortened: (§1)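 Visual 0-9 injury score (stand, vigor, malformation, size, chlorosis, appearance vs untreated) taken four to five weeks post-spray, averaged across repeat tests. Test plants about two weeks old; foliar spray of acetone/water (1:1) with 0.5% surfactant delivering ~0.0156-0.500 kg active/ha.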
# [2] = system: IPOHE (Morningglory, Ivyleaf); assay: Postemergence herbicidal evaluation; assay type: in vivo, Ipomoea hederacea; details: postemergence
# Protocol: (§2) In the tests, seedling plants are grown in jiffy flats for about two weeks. The test compounds are dispersed in 50/50 acetone/water mixtures containing 0.5% TWEEN®20, a polyoxyethylene sorbitan monolaurate surfactant of Atlas Chemical Industries, in sufficient quantities to provide the equivalent of about 0.0156 kg to 0.500 kg per hectare of active compound when applied to the plants through a spray nozzle operating at 40 psi for a predetermined time. After spraying, the plants are placed on greenhouse benches and are cared for in accordance with conventional greenhouse procedures. From four to five weeks after treatment, the seedling plants are examined and rated according to the rating system set forth below. Where more than one test is involved for a given compound, the data are averaged.
# (§3) Plant species employed in these evaluations are reported by header abbreviation, common name and scientific name.
# (§4) Results of herbicide evaluation are expressed on a rating scale (0-9). The scale is based upon a visual observation of plant stand, vigor, malformation, size, chlorosis and overall plant appearance as compared with a control.
# [3] = system: SETVI (Foxtail, Green); assay: Postemergence herbicidal evaluation; assay type: in vivo, Setaria viridis; details: postemergence
# Protocol: as §2, §3, §4
# [4] = system: GLXMAW (Soybean, Williams); assay: Postemergence herbicidal evaluation; assay type: in vivo, Glycine max, (L.) Merr. cv Williams; details: postemergence
# Procedure, shortened: as §1
# [5] = system: ZEAMX (Corn, Field); assay: Postemergence herbicidal evaluation; assay type: in vivo, Zea mays; details: postemergence
# Procedure, shortened: as §1
# [6] = system: ABUTH (Velvetleaf); assay: Preemergence herbicidal evaluation; assay type: in vivo, Abutilon theophrasti; details: rated 4-5 weeks after treatment
# Source text: as §4
# (§5) The preemergence herbicidal activity of the test compounds of the present invention is exemplified by the following tests in which the seeds of a variety of monocotyledonous and dicotyledonous plants are separately mixed with potting soil and planted on top of approximately one inch of soil in separate pint cups. After planting, the cups are sprayed with the selected aqueous acetone solution containing test compound in sufficient quantity to provide the equivalent of about 0.0156 to 0.500 kg per hectare of test compound per cup. The treated cups are then placed on greenhouse benches, watered and cared for in accordance with conventional greenhouse procedures. From four to five weeks after treatment, the tests are terminated and each cup is examined and rated according to the rating system provided in Example 37.
# (§6) The compounds evaluated are reported by compound number given in Example 37.
# [7] = system: AMBEL (Ragweed, Common); assay: Preemergence herbicidal evaluation; assay type: in vivo, Ambrosia artemisifolia; details: rated 4-5 weeks after treatment
# Source text: as §4, §5, §6
# [8] = system: CASOB (Sicklepod); assay: Preemergence herbicidal evaluation; assay type: in vivo, Cassia obtusifolia; details: rated 4-5 weeks after treatment
# Source text: as §4, §5, §6
# [9] = system: IPOHE (Morningglory, Ivyleaf); assay: Preemergence herbicidal evaluation; assay type: in vivo, Ipomoea hederacea; details: rated 4-5 weeks after treatment
# Source text: as §4, §5, §6
# [10] = system: ECHCG (Barnyardgrass); assay: Preemergence herbicidal evaluation; assay type: in vivo, Echinochloa crus-galli; details: rated 4-5 weeks after treatment
# Source text: as §4, §5, §6
# [11] = system: ECHORC (Watergrass (Calif.)); assay: Preemergence weed control under flooded paddy conditions; assay type: in vivo, Echinochloa oryzoides; details: rated 3-4 weeks after treatment
# Protocol: as §4
# Preemergence herbicidal activity under flooded paddy conditions is determined as follows: plant seeds or propagating organs are planted in the top 0.5 cm of silt loam soil in 32 oz. plastic containers with a diameter of 10.5 cm and no drainage holes. Water is added to these containers and maintained at 1.5 to 3 cm above the soil surface for the duration of the experiment. The test compounds are applied as aqueous/acetone mixtures 50/50 v/v pipetted directly into the flood water to give the equivalent of about 0.0313 to 0.500 kg/ha of active ingredient. The treated containers are placed on greenhouse benches and cared for in accordance with conventional greenhouse procedures. Three to four weeks after treatment, the test is terminated and each container is examined and herbicidal effect rated according to the rating system provided in Example 37. The compounds evaluated are reported by compound number given in Example 37.
# Plant species employed in this example are reported by header abbreviation, common name and scientific name.
smiles,measurement,setting,value
"CCOC(=O)CN1C(=O)C(CC(=O)O)SC1=Nc1cc(N2C(=O)CC(C(F)(F)F)CC2=O)c(F)cc1Cl (stereo not shown) [Compound 170, 2-{{2-Chloro-5-[2,6-dioxo-4-(trifluoromethyl)-piperidino]-4-fluorophenyl}imino}-4-oxo-3,5-thiazolidinediacetic acid, 3-ethyl ester]",Herbicidal rating ABUTH,[1]; rate 0.0156 kg/ha,9.0
same,Herbicidal rating ABUTH,[1]; rate 0.0313 kg/ha,9.0
same,Herbicidal rating ABUTH,[1]; rate 0.0625 kg/ha,9.0
same,Herbicidal rating IPOHE,[2]; rate 0.0156 kg/ha,9.0
same,Herbicidal rating IPOHE,[2]; rate 0.0313 kg/ha,9.0
same,Herbicidal rating IPOHE,[2]; rate 0.0625 kg/ha,9.0
same,Herbicidal rating SETVI,[3]; rate 0.0156 kg/ha,6.0
same,Herbicidal rating SETVI,[3]; rate 0.0313 kg/ha,9.0
same,Herbicidal rating SETVI,[3]; rate 0.0625 kg/ha,9.0
same,Herbicidal rating GLXMAW,[4]; rate 0.0156 kg/ha,7.5
same,Herbicidal rating GLXMAW,[4]; rate 0.0313 kg/ha,7.5
same,Herbicidal rating GLXMAW,[4]; rate 0.0625 kg/ha,7.5
same,Herbicidal rating ZEAMX,[5]; rate 0.0156 kg/ha,5.0
same,Herbicidal rating ZEAMX,[5]; rate 0.0313 kg/ha,6.0
same,Herbicidal rating ZEAMX,[5]; rate 0.0625 kg/ha,6.0
same,Preemergence herbicidal rating ABUTH,[6]; 0.0156 kg/ha,0.0
same,Preemergence herbicidal rating ABUTH,[6]; 0.0313 kg/ha,6.0
same,Preemergence herbicidal rating ABUTH,[6]; 0.0625 kg/ha,9.0
same,Preemergence herbicidal rating ABUTH,[6]; 0.1250 kg/ha,9.0
same,Preemergence herbicidal rating ABUTH,[6]; 0.2500 kg/ha,9.0
same,Preemergence herbicidal rating AMBEL,[7]; 0.0156 kg/ha,0.0
same,Preemergence herbicidal rating AMBEL,[7]; 0.0313 kg/ha,0.0
same,Preemergence herbicidal rating AMBEL,[7]; 0.0625 kg/ha,4.0
same,Preemergence herbicidal rating AMBEL,[7]; 0.1250 kg/ha,9.0
same,Preemergence herbicidal rating AMBEL,[7]; 0.2500 kg/ha,9.0
same,Preemergence herbicidal rating CASOB,[8]; 0.0156 kg/ha,0.0
same,Preemergence herbicidal rating CASOB,[8]; 0.0313 kg/ha,0.0
same,Preemergence herbicidal rating CASOB,[8]; 0.0625 kg/ha,0.0
same,Preemergence herbicidal rating CASOB,[8]; 0.1250 kg/ha,3.0
same,Preemergence herbicidal rating CASOB,[8]; 0.2500 kg/ha,3.0
same,Preemergence herbicidal rating IPOHE,[9]; 0.0156 kg/ha,3.0
same,Preemergence herbicidal rating IPOHE,[9]; 0.0313 kg/ha,7.0
same,Preemergence herbicidal rating IPOHE,[9]; 0.1250 kg/ha,7.0
same,Preemergence herbicidal rating IPOHE,[9]; 0.2500 kg/ha,9.0
same,Preemergence herbicidal rating ECHCG,[10]; 0.0156 kg/ha,3.0
same,Preemergence herbicidal rating ECHCG,[10]; 0.0313 kg/ha,9.0
same,Preemergence herbicidal rating ECHCG,[10]; 0.0625 kg/ha,9.0
same,Preemergence herbicidal rating ECHCG,[10]; 0.1250 kg/ha,9.0
same,Preemergence herbicidal rating ECHCG,[10]; 0.2500 kg/ha,9.0
same,"herbicidal effect rating, ECHORC",[11]; 0.0313 kg/ha,9.0
same,"herbicidal effect rating, ECHORC",[11]; 0.0625 kg/ha,9.0
same,"herbicidal effect rating, ECHORC",[11]; 0.1250 kg/ha,9.0
same,"herbicidal effect rating, ECHORC",[11]; 0.2500 kg/ha,9.0
